Reference: patent US20250340561A1, “QUINAZOLINE COMPOUND FOR INDUCING DEGRADATION OF G12D MUTANT KRAS PROTEIN” (Astellas Pharma Inc., priority 2021, published 2025)

Target: T1, KRAS G12D (Homo sapiens, UniProt P01116, G12D)
T1 construct: host or cells: AsPC-1 human pancreatic cancer cells
Test: Test Example 1-1: KRAS degradation action in AsPC-1, sandwich ELISA
Type: cell-based
Settings: AsPC-1 cells, 24 hours treatment, corrected with β-actin, 0% = 10 μM Example No. 7
Experimental: Test Example 1-1: Evaluation of KRAS Degradation Action on Human G12D Mutant KRAS-Positive Pancreatic Cancer Line AsPC-1
The KRAS degradation action of test compounds was evaluated by measuring the expression levels of KRAS G12D by a sandwich ELISA method.
AsPC-1 cells (ATCC, CRL-1682) were seeded at 90 μL per well on a 96-well plate (from IWAKI) to give 1.8×10^4 cells per well. As for the cell culture conditions, RPMI 1640 medium (from Merck) containing 10% fetal bovine serum (from Cytiva) was used in the presence of 5% CO2 at 37° C.
The next day, the test compounds (10 points having final concentrations in the range of 10 μM to 0.3 nM) were diluted 100-fold with a fresh medium and were added at 10 μL per well. The same treatments were each applied to 4 wells. In addition, in production of the sandwich ELISA plate, a capture antibody (anti-KRAS antibody, from LS Bio) mixed in Phosphate Buffered Saline [PBS; from FUJIFILM Wako Pure Chemical Corporation] in 1,000-fold dilution was added at 20 μL per well to a Maxisorp 384-well plate (from Thermo Scientific), and after attaching a seal, the plate was allowed to stand at 4° C. overnight.
After 24 hours of the test compound treatment, the culture supernatant was discarded. Immediately, a cytolytic solution (produced by adding, to a RIPA buffer [from Thermo Scientific], a Halt Protease Phosphatese Inhibitor Cocktail [from Thermo Scientific] and Benzonase Nuclease [from Merck] in amounts of 1/100 and 1/500, respectively) was added at 50 μL per well, and the cells were lysed. Then, equally treated 4 wells were combined to prepare a cell lysate sample of 200 μL in total. For KRAS detection, the Maxisorp 384-well plate which had been treated with the capture antibody since the previous day was washed (twice with 25 μL each) with 0.05% Tween-20-containing PBS (from Thermo Scientific; 20×PBS Tween-20 was diluted 20-fold with ion exchange water and used) and was treated with a blocking solution (Intercept Blocking Buffer; from LI-COR Biosciences) for 60 minutes, and then, the cell lysate samples were added at 20 μL per well. For 3-actin detection, the cell lysate samples were added as they were at 20 μL per well to the Maxisorp 384-well plate, and after attaching a seal, the plate was allowed to stand at 4° C. overnight.
The next day, after washing the KRAS detection plate with 0.05% Tween-20-containing PBS, an anti-Ras (G12D mutant specific) antibody (from Cell Signaling Technology) diluted 1,000-fold with a blocking solution was added at 20 μL per well as a detection antibody, and the plate was allowed to stand for 5 hours at room temperature. Then, the plate was centrifuged to remove the supernatant (using a centrifugal dehydrator machine, the supernatant was removed by the same method hereinafter) and was washed with 0.05% Tween-20-containing PBS. Then, an anti-Rabbit IgG […] antibody (from Cell Signaling Technology) diluted 1,000-fold with a blocking solution was added at 20 μL per well as a secondary antibody, and the plate was allowed to stand for 1 hour at room temperature. The plate was centrifuged to remove the supernatant and was washed with 0.05% Tween-20-containing PBS. Then, a BM chemiluminescent ELISA substrate (from Merck) was added at 20 μL per well, and the amounts of luminescence were measured with 2103 EnVision (from PerkinElmer). In addition, the 3-actin detection plate was washed with 0.05% Tween-20-containing PBS and was treated with a blocking solution for 60 minutes, and then, an anti-β-actin antibody (from Abcam) diluted 1,000-fold with a blocking solution was added at 20 μL per well as a detection antibody. The plate was allowed to stand for 5 hours at room temperature. Then, the plate was centrifuged to remove the supernatant and washed with 0.05% Tween-20-containing PBS, and then, an anti-Mouse IgG RP-linked antibody (from Cell Signaling Technology) diluted 1,000-fold with a blocking solution was added at 20 μL per well as a secondary antibody. […]

T1 sequence (P01116 1-188 isoform P01116-2 G12D): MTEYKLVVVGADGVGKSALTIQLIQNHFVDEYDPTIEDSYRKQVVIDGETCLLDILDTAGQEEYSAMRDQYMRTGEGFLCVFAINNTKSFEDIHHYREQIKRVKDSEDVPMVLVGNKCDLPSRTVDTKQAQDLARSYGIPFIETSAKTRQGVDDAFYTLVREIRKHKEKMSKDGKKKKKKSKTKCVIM

Row | SMILES | DC50 [nM]
1 | Cc1c(F)cc2[nH]ncc2c1-c1c(C2CC2)cc2c(N3C[C@@H]4C[C@H]3CN4)nc(OC3CCOCC3)nc2c1OCc1ccc(-c2cn([C@H](C(=O)N3C[C@H](O)C[C@H]3C(=O)N[C@@H](CO)c3ccc(N4CCOC4=O)cc3)C(C)C)nn2)cc1 [Example 20, (4R)-1-[(2S)-2-(4-{4-[({6-cyclopropyl-4-[(1S,4S)-2,5-diazabicyclo[2.2.1]heptan-2-yl]-7-(6-fluoro-5-methyl-1H-indazol-4-yl)-2-[(oxan-4-yl)oxy]quinazolin-8-yl}oxy)methyl]phenyl}-1H-1,2,3-triazol-1-yl)-3-methylbutanoyl]-4-hydroxy-N-{(1R)-2-hydroxy-1-[4-(2-oxo-1,3-oxazolidin-3-yl)phenyl]ethyl}-L-prolinamide] | 100
2 | Cc1ncsc1-c1ccc([C@H](CO)NC(=O)[C@@H]2C[C@@H](O)CN2C(=O)[C@H](C(C)C)n2cc(-c3ccc(COc4c(-c5c(C)c(F)cc6[nH]ncc56)c(C5CC5)cc5c(N6C[C@@H]7C[C@H]6CN7)nc(OC6CCN(CC(F)F)CC6)nc45)cc3)nn2)cc1 [Example 21] | 72
3 | Cc1c(F)cc2[nH]ncc2c1-c1c(C2CC2)cc2c(N3C[C@@H]4C[C@H]3CN4)nc(OC3CCOCC3)nc2c1OCc1ccc(-c2cn([C@H](C(=O)N3C[C@H](O)C[C@H]3C(=O)N[C@@H](CO)c3ccc(-c4ccnn4C)cc3)C(C)C)nn2)cc1 [Example 22] | 62
4 | Cc1c(F)cc2[nH]ncc2c1-c1c(C2CC2)cc2c(N3C[C@@H]4C[C@H]3CN4)nc(OC3CCOCC3)nc2c1OCc1ccc(-c2cn([C@H](C(=O)N3C[C@H](O)C[C@H]3C(=O)N[C@@H](CO)c3ccc(-c4ccnn4C)cc3)C(C)C)nn2)cc1 [Example 23] | 34
5 | Cc1ncsc1-c1ccc([C@H](CO)NC(=O)[C@@H]2C[C@@H](O)CN2C(=O)[C@H](C(C)C)n2cc(-c3ccc(COc4c(-c5c(C)c(F)cc6[nH]ncc56)c(C5CC5)cc5c(N6C[C@@H]7C[C@H]6CN7)nc(OC6CCN(C7COC7)CC6)nc45)cc3)nn2)cc1 [Example 24] | 103
6 | CCc1ccncc1Oc1nc(N2C[C@@H]3C[C@H]2CN3)c2cc(C3CC3)c(-c3c(C)c(F)cc4[nH]ncc34)c(OCc3ccc(-c4cn([C@H](C(=O)N5C[C@H](O)C[C@H]5C(=O)N[C@@H](CO)c5ccc(-c6scnc6C)cc5)C(C)C)nn4)cc3)c2n1 [Example 25] | 44
7 | CCn1nccc1-c1ccc([C@H](CO)NC(=O)[C@@H]2C[C@@H](O)CN2C(=O)[C@H](C(C)C)n2cc(-c3ccc(COc4c(-c5c(C)c(F)cc6[nH]ncc56)c(C5CC5)cc5c(N6C[C@@H]7C[C@H]6CN7)nc(OC6CCOCC6)nc45)cc3)nn2)cc1 [Example 26] | 24
8 | Cc1ncsc1-c1ccc([C@H](CO)NC(=O)[C@@H]2C[C@@H](O)CN2C(=O)[C@H](C(C)C)n2cc(-c3ccc(COc4c(-c5c(C)c(F)cc6[nH]ncc56)c(C5CC5)cc5c(N6C[C@@H]7C[C@H]6CN7)nc(OC6COC6)nc45)cc3)nn2)cc1 [Example 27] | 55
9 | Cc1ncsc1-c1ccc([C@H](CO)NC(=O)[C@@H]2C[C@@H](O)CN2C(=O)[C@H](C(C)C)n2cc(-c3ccc(COc4c(-c5c(C)c(F)cc6[nH]ncc56)c(C5CC5)cc5c(N6C[C@@H]7C[C@H]6CN7)nc(O[C@@H]6CCOC6)nc45)cc3)nn2)cc1 [Example 28] | 45
10 | Cc1ncsc1-c1ccc([C@H](CO)NC(=O)[C@@H]2C[C@@H](O)CN2C(=O)[C@H](C(C)C)n2cc(-c3ccc(COc4c(-c5c(C)c(F)cc6[nH]ncc56)c(C5CC5)cc5c(N6C[C@@H]7C[C@H]6CN7)nc(O[C@H]6CCOC6)nc45)cc3)nn2)cc1 [Example 29] | 33
